For 4 molecules, Papp results are on record in ChEMBL document CHEMBL1149687, “Development of oligoarginine-drug conjugates linked to new peptidic self-cleavable spacers toward effective intestinal absorption” (Bioorg Med Chem Lett, 2007).

The assay has as its system Caco-2. The assay can be described thus: Apparent permeability across Caco-2 cells. It is filed as functional, cell-based. The settings on record: Homo sapiens.

As for `CC(N)[C@@H](NC(=O)CCC(=O)OCCNC(=S)Nc1ccc(-c2c3ccc(=O)cc-3oc3cc(O)ccc23)c(C(=O)O)c1)C(=O)NCCCC(=O)N[C@H](CCCNC(=N)N)C(=O)N[C@H](CCCNC(=N)N)C(=O)N[C@H](CCCNC(=N)N)C(=O)N[C@H](CCCNC(=N)N)C(=O)N[C@H](CCCNC(=N)N)C(=O)N[C@H](CCCNC(=N)N)C(=O)N[C@H](CCCNC(=N)N)C(N)=O` (some centres undefined), the Papp came out at 0.48 ×10⁻⁶ cm/s.
With `O=C(O)c1cc(NC(=S)NCCO)ccc1-c1c2ccc(=O)cc-2oc2cc(O)ccc12` the figure was 0.26 ×10⁻⁶ cm/s; with `N=C(N)NCCC[C@@H](NC(=O)[C@@H](CCCNC(=N)N)NC(=O)[C@@H](CCCNC(=N)N)NC(=O)[C@@H](CCCNC(=N)N)NC(=O)[C@@H](CCCNC(=N)N)NC(=O)[C@@H](CCCNC(=N)N)NC(=O)[C@@H](CCCNC(=N)N)NC(=O)CCCNC(=O)[C@@H](CN)NC(=O)CCC(=O)OCCNC(=S)Nc1ccc(-c2c3ccc(=O)cc-3oc3cc(O)ccc23)c(C(=O)O)c1)C(N)=O`, 0.75 ×10⁻⁶ cm/s.
`C[C@@H](NC(=O)CCC(=O)OCCNC(=S)Nc1ccc(-c2c3ccc(=O)cc-3oc3cc(O)ccc23)c(C(=O)O)c1)C(=O)NCCCC(=O)N[C@H](CCCNC(=N)N)C(=O)N[C@H](CCCNC(=N)N)C(=O)N[C@H](CCCNC(=N)N)C(=O)N[C@H](CCCNC(=N)N)C(=O)N[C@H](CCCNC(=N)N)C(=O)N[C@H](CCCNC(=N)N)C(=O)N[C@H](CCCNC(=N)N)C(N)=O`: the Papp worked out at 0.41 ×10⁻⁶ cm/s.

By Papp is commonly meant the rate of passage across a membrane or cell layer, normalised by area and donor concentration.
